Source: patent US10273222B2 (CELGENE QUANTICEL RESEARCH, INC., priority 2013, dated 2019)
pIC50: −log10 of the molar value.

How the values were obtained:
Jarid1A = Jarid1A (Homo sapiens (Human), UniProt P29375); assay: Jarid1A in vitro enzyme inhibition assay (TR-FRET); assay type: biochemical
Excerpt: The enzymatic assay of Jarid1A activity is based upon Time Resolved-Fluorescence Resonance Energy Transfer (TR-FRET) detection.

Jarid1B = Jarid1B (Homo sapiens (Human), UniProt Q9UGL1); assay: Jarid1B in vitro enzyme inhibition assay (TR-FRET); assay type: biochemical
Procedure: This assay determines the ability of a test compound to inhibit Jarid1A, Jarid1B, JMJD2C, and JMJD2A demethylase activity.
The ability of test compounds to inhibit the activity of Jarid1B was determined in 384-well plate format under the following reaction conditions: 0.8 nM Jarid1B, 300 nM H3K4me3-biotin labeled peptide (Anaspec cat #64357), 2 μM alpha-ketoglutaric acid in assay buffer of 50 mM HEPES, pH7.3, 0.005% Brij35, 0.5 mM TCEP, 0.2 mg/ml BSA, 50 μM sodium L-ascorbate, and 2 μM ammonium iron(II) sulfate. Reaction product was determined quantitatively by TR-FRET after the addition of detection reagent Phycolink Streptavidin-allophycocyanin (Prozyme) and Europium-anti-mono- or di-methylated histone H3 lysine 4 (H3K4me1-2) antibody (PerkinElmer) in the presence of 5 mM EDTA in LANCE detection buffer (PerkinElmer) at a final concentration of 25 nM and 1 nM, respectively.
The assay reaction was initiated by the following: 2 μl of the mixture of 900 nM H3K4me3-biotin labeled peptide and 6 μM alpha-ketoglutaric acid with 2 μl of 11-point serial diluted inhibitor in 3% DMSO was added to each well of the plate, followed by the addition of 2 μl of 2.4 nM Jarid1B to initiate the reaction. The reaction mixture was incubated at room temperature for 30 minutes, and terminated by the addition of 6 μl of 5 mM EDTA in LANCE detection buffer containing 50 nM Phycolink Streptavidin-allophycocyanin and 2 nM Europium-anti-H3K4me1-2 antibody. Plates were read by EnVisionMultilabel Reader in TR-FRET mode (excitation at 320 nm, emission at 615 nm and 665 nm) after 1 hour incubation at room temperature. A ratio was calculated (665/615) for each well and fitted to determine inhibition constant (IC50).

JMJD2C = JMJD2C (Homo sapiens (Human), UniProt Q9H3R0); assay: JMJD2C in vitro enzyme inhibition assay (TR-FRET); assay type: biochemical
FBXL10 = FBXL10 (Homo sapiens (Human), UniProt Q8NHM5); assay: FBXL10 in vitro enzyme inhibition assay (AlphaScreen); assay type: biochemical
Outline: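 AlphaScreen read-out of H3K36me1 product, detected with anti-H3K36me1 antibody plus streptavidin donor and Protein A acceptor beads (final 10 μg/ml) in 50 mM HEPES pH 7.3, 10 mM NaCl, 0.005% Brij35, 5 mM EDTA, 2 mg/ml BSA. Beads incubated 2 h to overnight at room temperature; IC50 derived from AlphaScreen signal.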

KDM5A and KDM5B = assay: In vitro cell-based assay: tri-methyl H3K4 immuno-blotting in ZR-75-1 cells (cellular inhibition of KDM5A/B); conditions: ZR-75-1 breast cancer cells, 72 hours, tri-methylated H3K4 level; read-out: IC50 ZR-75-1 cell-MOA
Procedure: This quantitative immuno-blotting assay measures the amount tri-methylated histone H3 at amino acid Lysine number 4, a specific substrate and product of the direct enzymatic activity of the histone demethylases KDM5A and KDM5B from extracts of the ZR-75-1 breast cancer cell line.
This assay is a fluorometric immunoassay for the quantification of tri-methyl H3K4 extracted from cells treated with test compound and is used as a measure of the cellular inhibition of KDM5A/B.
Extracts were prepared containing all of the cellular histone material using detergent based lysis and sonication methods. These lysates were subsequently normalized for total protein content using a colorimetric bicinchonic acid assay (MicroBCA Pierce/Thermo Scientific). Normalized cell extracts were then subjected to typical immuno-blotting procedures using NuPage reagents (Life Technologies). Electrophoretically separated histones were then transferred and immobilized using polyvinylidene difluoride membrane (Immobilon-FL Millipore). The amount of tri-methylated lysine 4 of histone H3 was detected using an antibody specific to the tri-methylated state (Cell Signaling Technologies) and quantified on an infrared imager using a densitometry software package (Odyssey CLx, Image Studio, Li-Cor). This background subtracted densitometry value was reported as a ration of the GAPDH amount for that sample and then calculated as a percent of the DMSO treated sample. The software package XL-fit (IDBS) was then used to calculate a relative IC50 value for the dilution series of a given test compound according to the equation: fit=(D+((Vmax*(x^n))/((x^n)+(Km^n)))).

JMJD2A = JMJD2A (Homo sapiens (Human), UniProt O75164); assay: JMJD2A in vitro enzyme inhibition assay (TR-FRET); assay type: biochemical
Sequence of JMJD2A (O75164 1-350): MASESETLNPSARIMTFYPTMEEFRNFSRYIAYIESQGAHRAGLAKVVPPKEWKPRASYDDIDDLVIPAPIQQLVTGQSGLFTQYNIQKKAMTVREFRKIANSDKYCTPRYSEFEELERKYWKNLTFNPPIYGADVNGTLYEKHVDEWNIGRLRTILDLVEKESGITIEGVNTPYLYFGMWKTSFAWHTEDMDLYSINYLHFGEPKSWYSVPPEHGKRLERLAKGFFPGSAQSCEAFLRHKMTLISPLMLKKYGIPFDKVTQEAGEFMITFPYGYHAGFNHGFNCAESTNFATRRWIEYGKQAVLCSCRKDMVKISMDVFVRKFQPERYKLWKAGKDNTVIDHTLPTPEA
Procedure: This assay determines the ability of a test compound to inhibit Jarid1A, Jarid1B, JMJD2C, and JMJD2A demethylase activity. […] Baculovirus expressed JMJD2A (GenBank Accession #NM_014663, AA 1-350) was purchased from BPS Bioscience (Cat#50123).
The ability of test compounds to inhibit the activity of JMJD2A was determined in 384-well plate format under the following reaction conditions: 2 nM JMJD2A, 300 nM H3K9me3-biotin labeled peptide (Anaspec cat #64360), 2 μM alpha-ketoglutaric acid in assay buffer of 50 mM HEPES, pH7.3, 0.005% Brij35, 0.5 mM TCEP, 0.2 mg/ml BSA, 50 μM sodium L-ascorbate, and 2 μM ammonium iron(II) sulfate. Reaction product was determined quantitatively by TR-FRET after the addition of detection reagent Phycolink Streptavidin-allophycocyanin (Prozyme) and Europium-anti-di-methylated histone H3 lysine 9 (H3K9me2) antibody (PerkinElmer) in the presence of 5 mM EDTA in LANCE detection buffer (PerkinElmer) at a final concentration of 50 nM and 1 nM, respectively.
The assay reaction was initiated by the following: 2 μl of the mixture of 900 nM H3K9me3-biotin labeled peptide and 6 μM alpha-ketoglutaric acid with 2 μl of 11-point serial diluted inhibitor in 3% DMSO were added to each well of plate, followed by the addition of 2 μl of 6 nM JMJD2A to initiate the reaction. The reaction mixture was incubated at room temperature for 30 minutes, and terminated by the addition of 6 μl of 5 mM EDTA in LANCE detection buffer containing 100 nM Phycolink Streptavidin-allophycocyanin and 2 nM Europium-anti-H3K9me2 antibody. Plates were read by EnVisionMultilabel Reader in TR-FRET mode (excitation at 320 nm, emission at 615 nm and 665 nm) after 1 hour incubation at room temperature. A ratio was calculated (665/615) for each well and fitted to determine inhibition constant (IC50).

Sequence of Jarid1B (Q9UGL1 2-751): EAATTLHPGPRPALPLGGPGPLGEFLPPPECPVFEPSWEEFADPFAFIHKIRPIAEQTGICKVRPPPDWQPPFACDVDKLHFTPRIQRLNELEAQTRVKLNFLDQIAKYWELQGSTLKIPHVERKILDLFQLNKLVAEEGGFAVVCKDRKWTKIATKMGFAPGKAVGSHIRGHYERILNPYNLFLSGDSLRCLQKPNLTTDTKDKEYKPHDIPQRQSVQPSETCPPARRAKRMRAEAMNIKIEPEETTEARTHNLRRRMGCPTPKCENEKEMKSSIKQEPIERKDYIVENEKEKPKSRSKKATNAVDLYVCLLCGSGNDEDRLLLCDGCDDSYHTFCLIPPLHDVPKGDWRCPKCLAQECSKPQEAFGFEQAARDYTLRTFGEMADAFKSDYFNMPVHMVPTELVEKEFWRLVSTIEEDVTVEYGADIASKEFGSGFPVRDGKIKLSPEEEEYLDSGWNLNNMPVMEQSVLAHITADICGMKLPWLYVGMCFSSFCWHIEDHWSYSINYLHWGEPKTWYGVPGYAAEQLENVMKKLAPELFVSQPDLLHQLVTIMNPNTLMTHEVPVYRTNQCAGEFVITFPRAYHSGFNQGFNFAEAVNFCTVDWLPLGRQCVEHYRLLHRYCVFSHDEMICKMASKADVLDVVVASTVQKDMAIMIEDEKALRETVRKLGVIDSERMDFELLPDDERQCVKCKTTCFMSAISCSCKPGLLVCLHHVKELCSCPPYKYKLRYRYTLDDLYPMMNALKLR
Sequence of FBXL10 (Q8NHM5 1-650): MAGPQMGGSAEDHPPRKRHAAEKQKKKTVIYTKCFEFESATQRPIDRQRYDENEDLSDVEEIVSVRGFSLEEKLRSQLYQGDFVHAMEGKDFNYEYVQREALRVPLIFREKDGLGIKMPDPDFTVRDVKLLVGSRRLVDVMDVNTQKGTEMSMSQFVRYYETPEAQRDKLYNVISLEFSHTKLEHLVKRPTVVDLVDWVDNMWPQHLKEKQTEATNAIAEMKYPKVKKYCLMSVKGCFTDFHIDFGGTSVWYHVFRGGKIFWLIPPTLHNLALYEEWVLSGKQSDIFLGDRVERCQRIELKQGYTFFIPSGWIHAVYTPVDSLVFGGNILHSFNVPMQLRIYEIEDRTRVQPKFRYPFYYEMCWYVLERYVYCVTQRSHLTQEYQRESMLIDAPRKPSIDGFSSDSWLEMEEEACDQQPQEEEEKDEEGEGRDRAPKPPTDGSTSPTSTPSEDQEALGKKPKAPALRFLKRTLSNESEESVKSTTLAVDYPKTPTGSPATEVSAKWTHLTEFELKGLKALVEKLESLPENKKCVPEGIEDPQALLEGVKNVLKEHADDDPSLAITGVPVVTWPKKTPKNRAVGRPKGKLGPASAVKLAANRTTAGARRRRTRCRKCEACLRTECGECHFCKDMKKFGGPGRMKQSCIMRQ
Sequence of Jarid1A (P29375 1-1090): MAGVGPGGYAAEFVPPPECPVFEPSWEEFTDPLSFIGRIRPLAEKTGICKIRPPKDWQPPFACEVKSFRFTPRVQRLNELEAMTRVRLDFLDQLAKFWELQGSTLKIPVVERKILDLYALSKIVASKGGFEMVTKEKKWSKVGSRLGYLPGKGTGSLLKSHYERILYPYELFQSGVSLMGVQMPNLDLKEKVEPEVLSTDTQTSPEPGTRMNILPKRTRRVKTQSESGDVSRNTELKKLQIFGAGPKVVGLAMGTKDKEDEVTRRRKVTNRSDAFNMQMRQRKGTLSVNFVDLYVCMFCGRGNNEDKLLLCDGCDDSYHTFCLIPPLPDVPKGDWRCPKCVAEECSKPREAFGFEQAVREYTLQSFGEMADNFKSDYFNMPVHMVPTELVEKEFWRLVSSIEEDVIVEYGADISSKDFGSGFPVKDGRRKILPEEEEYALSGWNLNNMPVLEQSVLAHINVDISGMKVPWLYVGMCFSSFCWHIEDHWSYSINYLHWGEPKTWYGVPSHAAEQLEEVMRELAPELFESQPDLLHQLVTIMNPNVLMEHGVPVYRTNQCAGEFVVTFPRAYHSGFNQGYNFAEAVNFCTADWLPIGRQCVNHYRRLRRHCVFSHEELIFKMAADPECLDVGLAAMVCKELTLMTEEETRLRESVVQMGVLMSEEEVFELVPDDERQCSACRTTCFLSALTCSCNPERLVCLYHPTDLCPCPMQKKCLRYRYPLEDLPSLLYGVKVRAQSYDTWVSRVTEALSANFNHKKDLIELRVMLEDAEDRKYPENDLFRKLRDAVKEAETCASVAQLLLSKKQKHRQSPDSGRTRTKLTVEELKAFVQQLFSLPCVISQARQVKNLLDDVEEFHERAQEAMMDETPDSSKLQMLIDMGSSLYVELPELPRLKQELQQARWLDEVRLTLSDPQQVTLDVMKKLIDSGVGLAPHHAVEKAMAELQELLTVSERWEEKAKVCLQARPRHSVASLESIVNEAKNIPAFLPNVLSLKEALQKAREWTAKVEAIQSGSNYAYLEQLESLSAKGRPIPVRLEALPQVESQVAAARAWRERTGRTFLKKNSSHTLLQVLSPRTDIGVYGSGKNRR
Sequence of JMJD2C (Q9H3R0 2-372): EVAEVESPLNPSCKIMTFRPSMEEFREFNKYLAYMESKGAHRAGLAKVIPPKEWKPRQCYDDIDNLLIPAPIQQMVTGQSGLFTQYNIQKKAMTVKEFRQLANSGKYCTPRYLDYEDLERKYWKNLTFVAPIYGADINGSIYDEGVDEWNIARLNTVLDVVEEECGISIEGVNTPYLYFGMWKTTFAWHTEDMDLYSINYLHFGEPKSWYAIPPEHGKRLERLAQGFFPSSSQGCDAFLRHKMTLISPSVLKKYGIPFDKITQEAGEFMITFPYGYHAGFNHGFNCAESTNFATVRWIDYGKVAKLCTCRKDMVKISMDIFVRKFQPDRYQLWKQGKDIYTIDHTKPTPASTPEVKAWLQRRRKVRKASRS

Structure (SMILES) | pIC50 (Jarid1A) | pIC50 (Jarid1B) | pIC50 (JMJD2C) | pIC50 (FBXL10) | pIC50 (KDM5A and KDM5B) | pIC50 (JMJD2A)
Cc1ccc(-c2c(-c3cc(C(=O)O)ccn3)ncn2C)cc1O [Example 3, 2-[5-(3-hydroxy-4-methylphenyl)-1-methyl-1H-imidazol-4-yl]pyridine-4-carboxylic acid] | ≥ 7.00 | ≥ 7.00 | 5.00 to 6.00 | 6.00 to 7.00 | < 5.00 | 
Cn1cnc(-c2cc(C(=O)O)ccn2)c1-c1ccc(C2CC2)cc1 [Example 7, 2-[5-(4-cyclopropylphenyl)-1-methyl-1H-imidazol-4-yl]pyridine-4-carboxylic acid] | ≥ 7.00 | ≥ 7.00 | 5.00 to 6.00 | 6.00 to 7.00 | < 5.00 | 
COc1ccc(-c2c(-c3cc(C(=O)O)ccn3)ncn2C)cc1 [Example 12, 2-[5-(4-methoxyphenyl)-1-methyl-1H-imidazol-4-yl]pyridine-4-carboxylic acid] |  |  |  |  | 5.00 to 6.00 | 
Cn1cnc(-c2cc(C(=O)O)ccn2)c1-c1ccc(-n2cccn2)cc1 [Example 15, 2-{1-methyl-5-[4-(1H-pyrazol-1-yl)phenyl]-1H-imidazol-4-yl}pyridine-4-carboxylic acid] | ≥ 7.00 | ≥ 7.00 | 6.00 to 7.00 | 6.00 to 7.00 | 5.00 to 6.00 | 
Cn1cnc(-c2cc(C(=O)O)ccn2)c1-c1ccc(OCC2CC2)cc1 [Example 16, 2-{5-[4-(cyclopropylmethoxy)phenyl]-1-methyl-1H-imidazol-4-yl}pyridine-4-carboxylic acid] | ≥ 7.00 | ≥ 7.00 | 6.00 to 7.00 | 6.00 to 7.00 | 5.00 to 6.00 | 
Cn1cnc(-c2cc(C(=O)O)ccn2)c1-c1ccc(N2CCCC2)cc1 [Example 18, 2-{1-methyl-5-[4-(pyrrolidin-1-yl)phenyl]-1H-imidazol-4-yl}pyridine-4-carboxylic acid] | ≥ 7.00 | ≥ 7.00 | 6.00 to 7.00 |  | 5.00 to 6.00 | 
Cn1cnc(-c2cc(C(=O)O)ccn2)c1-c1ccc(Cl)cc1 [Example 19, 2-[5-(4-chlorophenyl)-1-methyl-1H-imidazol-4-yl]pyridine-4-carboxylic acid] | ≥ 7.00 | ≥ 7.00 | 6.00 to 7.00 | ≥ 7.00 | 5.00 to 6.00 | 
Cn1cnc(-c2cc(C(=O)O)ccn2)c1-c1cccc(Cl)c1 [Example 20, 2-[5-(3-chlorophenyl)-1-methyl-1H-imidazol-4-yl]pyridine-4-carboxylic acid] | ≥ 7.00 | ≥ 7.00 | 6.00 to 7.00 | ≥ 7.00 | < 5.00 | 
Cn1cnc(-c2cc(C(=O)O)ccn2)c1-c1ccc2cc[nH]c2c1 [Example 22, 2-[5-(1H-indol-6-yl)-1-methyl-1H-imidazol-4-yl]pyridine-4-carboxylic acid] | ≥ 7.00 | ≥ 7.00 | 6.00 to 7.00 | ≥ 7.00 | < 5.00 | 
Cn1cnc(-c2cc(C(=O)O)ccn2)c1-c1ccc(Cl)c(F)c1 [Example 29, 2-[5-(4-chloro-3-fluorophenyl)-1-methyl-1H-imidazol-4-yl]pyridine-4-carboxylic acid] | ≥ 7.00 | ≥ 7.00 | 6.00 to 7.00 | ≥ 7.00 | < 5.00 | 
CCCn1cnc(-c2cc(C(=O)O)ccn2)c1-c1ccc(Cl)c(F)c1 [Example 35, 2-[5-(4-chloro-3-fluorophenyl)-1-propyl-1H-imidazol-4-yl]pyridine-4-carboxylic acid] | ≥ 7.00 | ≥ 7.00 | 6.00 to 7.00 | ≥ 7.00 | < 5.00 | 
CN(C)CCn1cnc(-c2cc(C(=O)O)ccn2)c1 [Example 40, 2-{1-[2-(dimethylamino)ethyl]-1H-imidazol-4-yl}pyridine-4-carboxylic acid] | ≥ 7.00 | ≥ 7.00 | ≥ 7.00 |  | 5.00 to 6.00 | 
CCCn1cnc(-c2cc(C(=O)O)ccn2)c1 [Example 41, 2-(1-propyl-1H-imidazol-4-yl)pyridine-4-carboxylic acid] | ≥ 7.00 | ≥ 7.00 | ≥ 7.00 | ≥ 7.00 | 5.00 to 6.00 | 
O=C(O)c1ccnc(-c2cn(CCNCC3CCC(F)(F)CC3)cn2)c1 [Example 72, 2-[1-[2-[(4,4-difluorocyclohexyl)methylamino]ethyl]imidazol-4-yl]pyridine-4-carboxylic acid] | ≥ 7.00 | ≥ 7.00 | ≥ 7.00 | ≥ 7.00 | 5.00 to 6.00 | 
O=C(O)c1ccnc(-c2cn(CCc3ccc(F)cc3)cn2)c1 [Example 92, 2-[1-[2-(4-fluorophenyl)ethyl]imidazol-4-yl]pyridine-4-carboxylic acid] | ≥ 7.00 | ≥ 7.00 | ≥ 7.00 | ≥ 7.00 | 5.00 to 6.00 | 
O=C(O)c1ccnc(-c2cn(CCc3ccccc3F)cn2)c1 [Example 93, 2-[1-[2-(2-fluorophenyl)ethyl]imidazol-4-yl]pyridine-4-carboxylic acid] | ≥ 7.00 | ≥ 7.00 | ≥ 7.00 | ≥ 7.00 | 5.00 to 6.00 | 
O=C(O)c1ccnc(-c2cn(Cc3ccccc3)cn2)c1 [Example 100, 2-(1-benzylimidazol-4-yl)pyridine-4-carboxylic acid] | ≥ 7.00 | ≥ 7.00 | 6.00 to 7.00 | ≥ 7.00 | 5.00 to 6.00 | 
O=C(O)c1ccnc(-c2cn(C3CCc4c(F)cccc43)cn2)c1 (stereo not shown) [Example 110, 2-[1-(4-fluoro-2,3-dihydro-1H-inden-1-yl)imidazol-4-yl]pyridine-4-carboxylic acid] | ≥ 7.00 | ≥ 7.00 | 6.00 to 7.00 | ≥ 7.00 |  | 6.00 to 7.00
O=C(O)c1ccnc(-c2cn(Cc3cccc(-c4ccccc4)c3)cn2)c1 [Example 111, 2-[1-[(3-phenylphenyl)methyl]imidazol-4-yl]pyridine-4-carboxylic acid] | ≥ 7.00 | ≥ 7.00 | 5.00 to 6.00 | ≥ 7.00 |  | 5.00 to 6.00
O=C(O)c1ccnc(-c2cn(CCc3cccc4ccccc34)cn2)c1 [Example 112, 2-[1-(2-naphthalen-1-ylethyl)imidazol-4-yl]pyridine-4-carboxylic acid] | ≥ 7.00 | ≥ 7.00 | 6.00 to 7.00 | ≥ 7.00 |  | 6.00 to 7.00
O=C(O)c1ccnc(-c2cn(CC3CCCc4ccccc43)cn2)c1 (stereo not shown) [Example 116, 2-[1-(1,2,3,4-tetrahydronaphthalen-1-ylmethyl)imidazol-4-yl]pyridine-4-carboxylic acid] | ≥ 7.00 | ≥ 7.00 | 6.00 to 7.00 | ≥ 7.00 |  | ≥ 7.00
Cn1cnc(-c2cc(C(=O)O)ccn2)c1-c1ccc(F)cc1OCC1CC1 [Example 120, 2-[5-[2-(cyclopropylmethoxy)-4-fluorophenyl]-1-methylimidazol-4-yl]pyridine-4-carboxylic acid] | 6.00 to 7.00 | ≥ 7.00 | 5.00 to 6.00 | ≥ 7.00 |  | < 5.00
Clc1ccccc1Cn1cnc(-c2cc(-c3nn[nH]n3)ccn2)c1 [Example 129, 2-[1-[(2-chlorophenyl)methyl]imidazol-4-yl]-4-(2H-tetrazol-5-yl)pyridine] | 6.00 to 7.00 | ≥ 7.00 | 5.00 to 6.00 | ≥ 7.00 |  | < 5.00
FC(F)(F)c1ccccc1CCn1cnc(-c2cc(-c3nn[nH]n3)ccn2)c1 [Example 140, 4-(2H-tetrazol-5-yl)-2-[1-[2-[2-(trifluoromethyl)phenyl]ethyl]imidazol-4-yl]pyridine] | 6.00 to 7.00 | ≥ 7.00 | 5.00 to 6.00 | ≥ 7.00 |  | < 5.00
Clc1ccccc1CCn1cnc(-c2cc(-c3nn[nH]n3)ccn2)c1 [Example 141, 2-[1-[2-(2-chlorophenyl)ethyl]imidazol-4-yl]-4-(2H-tetrazol-5-yl)pyridine] | 6.00 to 7.00 | 6.00 to 7.00 | 5.00 to 6.00 | ≥ 7.00 |  | < 5.00
CCC(c1ccccc1)n1cnc(-c2cc(-c3nn[nH]n3)ccn2)c1 (stereo not shown) [Example 144, 2-[1-(1-phenylpropyl)imidazol-4-yl]-4-(2H-tetrazol-5-yl)pyridine] | 6.00 to 7.00 | ≥ 7.00 | 5.00 to 6.00 | ≥ 7.00 |  | < 5.00
CC(C)C(c1ccccc1)n1cnc(-c2cc(-c3nn[nH]n3)ccn2)c1 (stereo not shown) [Example 145, 2-[1-(2-methyl-1-phenylpropyl)imidazol-4-yl]-4-(2H-tetrazol-5-yl)pyridine] | 6.00 to 7.00 | 6.00 to 7.00 | 5.00 to 6.00 | ≥ 7.00 |  | < 5.00
Cn1cnc(-c2cc(-c3nn[nH]n3)ccn2)c1-c1ccc(F)cc1OCC1CC1 [Example 150, 2-[5-[2-(cyclopropylmethoxy)-4-fluorophenyl]-1-methylimidazol-4-yl]-4-(2H-tetrazol-5-yl)pyridine] | 6.00 to 7.00 | ≥ 7.00 | 5.00 to 6.00 | ≥ 7.00 |  | < 5.00
FC(F)(F)c1cccc(Cn2cnc(-c3cc(-c4nn[nH]n4)ccn3)c2)c1Cl [Example 154, 2-[1-[[2-chloro-3-(trifluoromethyl)phenyl]methyl]imidazol-4-yl]-4-(2H-tetrazol-5-yl)pyridine] | 6.00 to 7.00 | ≥ 7.00 | 5.00 to 6.00 | ≥ 7.00 |  | < 5.00
